US20090221702A1, “COMPOUNDS” (priority 2005, published 2009)
“Also recorded” adds a separate entry of the source.

How the values were obtained:
Assay type in all cases: cell-based
PKB [1] = target: T1, PKB (Mus musculus, UniProt P31750); assay: Western blotting of the phospho-Akt content (FIG. 5); conditions: NIH3T3 cells, method as for FIG. 2
T1 construct: endogenous in cells; host or cells: NIH3T3
Method: (§1) In a typical method, NIH3T3 cells were grown in media (GibcoBRL) containing 10% NCS to near confluency in six well plates. The cells were starved using 0.5% serum for 2-3 days. The media was then removed and replaced with serum free media for 15 minutes. Subsequently, 1% NCS was added to reaction wells, and 0%, 1% and 10% NCS to control wells. After 20 minutes incubation, the compound was added, and the wells incubated for a further 15 minutes. Media was removed and sample buffer was added and the cells lysed, boiled, centrifuged.
(§2) Samples were subjected to gel electrophoresis by 10% SDS-PAGE and then Western blotted on to PVDF membrane (Biorad) according to standard protocols. Western blots were probed using primary antibodies against PKB purchased from New England Biolabs and secondary antibodies of goat anti-rabbit IgG coupled to horseradish peroxidase (Amersham). The membranes were then developed using a freshly prepared ECL solution according to standard protocols.
Western blotting of the phospho-Akt content was also monitored. The methodology used was the same as above.

PKB [2] = assay: Immunofluorescence microscopy with phospho-specific Ser473 PKB antibody in NIH 3T3 or Cos6 fibroblasts; conditions: for phosphorylation of PKB on S473 by compound alone: 10 min, starved Cos6 cells, without any serum
Method: We therefore tested the compound's effect on PKB S473 phosphorylation by immunofluorescence microscopy with a phospho-specific PKB antibody.
(§3) NIH 3T3 of Cos6 fibroblasts growing on PLL coated coverslips in DMEM containing 10% FCS were starved for 24 hours. Stimulation with c48/80 [10 μg/ml] was always carried out in the presence of 1% FCS for 10 min. Whereas cells growing in DMEM completely depleted of serum were used for experiments with cQ [15 μg/ml]. Where indicated, cells were pretreated with 100 μM LY294002 for 30 min or 500 nM RV001 for 15 min. After treatment cells were washed with PBS, fixed with 4% PFA and permeabilised with 0.25% Triton-X/PBS and washed extensively. After blocking in 1% BSA, cells were phalloidin stained and/or incubated with phospho-specific Ser473 PKB antibody (Cell Signalling) at 4° C. over night and a Fluorescein (FITC)—conjugated goat anti-mouse IgG (Jackson Immuno Research) at room temperature for 1 h. Nuclei were stained with Dapi. Coverslips were mounted on Mowiol containing slides and sealed before analysing on a Nikon Microscope.

NIH3T3 fibroblasts = assay: MTT assay; conditions: 50 μM
Source text: However its inhibitory effects on stimulated cells were not as strong. The methods used were as for Example 2.

PKB [3] = target: T1, PKB; assay: Western blot monitoring PKB modulation in NIH3T3 cells (FIG. 2); conditions: 1% NCS, various concentrations, 15 minutes
Method: PKB is a protein downstream effector of PI3K, and becomes phosphorylated on (residues required for its activity) in response to the activation of PI3K. Natal Calf Serum (NCS) is a stimulator of PI3K and thus subsequently results in PKB activation. Therefore the positive control used in experiments is 10% serum and a negative control used is provided with no serum at all.
as §1, §2

Cos6 fibroblasts = assay: Phalloidin staining of F-actin / actin remodelling in starved Cos6 fibroblasts; conditions: for insulin-stimulated actin remodelling: 15 μg/ml cQ and 5 μg/ml insulin
Method: as §3

T1 sequence (P31750 whole entry): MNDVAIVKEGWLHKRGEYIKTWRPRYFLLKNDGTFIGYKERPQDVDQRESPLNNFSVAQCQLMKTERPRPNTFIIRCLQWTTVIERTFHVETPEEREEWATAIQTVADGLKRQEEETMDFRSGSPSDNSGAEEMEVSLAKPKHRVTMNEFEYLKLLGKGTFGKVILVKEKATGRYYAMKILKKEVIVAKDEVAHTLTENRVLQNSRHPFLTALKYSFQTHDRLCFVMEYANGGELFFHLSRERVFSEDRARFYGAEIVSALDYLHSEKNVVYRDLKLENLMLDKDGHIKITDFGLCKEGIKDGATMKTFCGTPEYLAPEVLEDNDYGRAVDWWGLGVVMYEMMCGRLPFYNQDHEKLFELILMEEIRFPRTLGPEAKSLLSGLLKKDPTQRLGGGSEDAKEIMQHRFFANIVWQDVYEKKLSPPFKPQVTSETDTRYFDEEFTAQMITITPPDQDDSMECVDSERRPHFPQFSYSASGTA

SMILES	activation of PKB (phospho-Akt content, western blots, FIG. 5) (PKB [1])	Akt/PKB phosphorylation in starved cells (PKB [2]; 1 μM, starved cells)	inhibitory effects on Akt/PKB phosphorylation in stimulated cells (PKB [2]; 1 μM, stimulated cells, compared with 50 μM)	Akt/PKB phosphorylation in Insulin stimulated cells (PKB [2]; 50 μM, Insulin stimulated cells)	response with PTEN inhibition (increased PI(3,4,5)P3 levels) (PKB [2]; 50 μM, PTEN inhibition)	S473 phosphorylation with PI3-kinase inhibition (PKB [2]; 50 μM, Wortmannin or LY294002)	Akt/PKB phosphorylation on S473 in starved cells (PKB [2]; 50 μM, starved cells)	cytotoxicity (MTT assay) (NIH3T3 fibroblasts)	effect on PKB (phosphorylation of PKB, western blots, FIG. 2) (PKB [3])	PKB activation with PTEN inhibitor RV001 (increased PI(3,4,5)P3 levels) (PKB [2]; 15 μg/ml cQ, 500 nM RV001 pretreatment, 0.2 μg/ml insulin, listed as cQ)	compound-induced PKB phosphorylation after PI3-kinase inhibition (PKB [2]; 15 μg/ml cQ, 30 min preincubation with 100 μM LY294002, listed as cQ)	effect of pretreatment on activation of PKB by serum (PKB [2]; 15 μg/ml, 10% FCS, starved cells)	phosphorylation of PKB on S473 by compound alone (PKB [2]; 15 μg/ml)	phosphorylation of PKB on S473 by compound alone (PKB [2]; 15 μg/ml, listed as cQ)	effect of serum on compound-induced PKB activation (PKB [2]; increasing concentrations of serum)	insulin-stimulated actin remodelling (Cos6 fibroblasts; 10 min)	insulin-stimulated actin remodelling (Cos6 fibroblasts; 10 min, listed as cQ)	stress fibers in starved fibroblasts (Cos6 fibroblasts; 15 μg/ml, 10 min, starved Cos6)	cytoskeleton reorganisation, dependence on PI3-kinase (Cos6 fibroblasts; 15 μg/ml, preincubation with 100 μM LY294002 for 30 min, listed as cQ)	F-actin organisation after treatment (Cos6 fibroblasts; 15 μg/ml, starved Cos6)
Oc1ccc(CCCl)cc1Cc1cc(CCCl)ccc1O [Compound C, 3,3′-Methylenebis[1-(2-chloroethyl)-4-hydroxybenzene]]	can activate PKB	still activatory on its own	not as strong	inhibitory on Akt/PKB phosphorylation	inhibited the response	increase of phosphorylation at this site	activate Akt/PKB phosphorylation on S473	cytotoxic effects												
COc1c(CO)cc(C)cc1CO [Compound F, 2,6-Bis(hydroxymethyl)-4-anisole]	can activate PKB								activators											
Oc1ccc(CCCl)cc1 [Compound Q]	can activate PKB									indirectly inhibits PKB activation after cQ challenge; also recorded: inhibited PI(3,4,5)P3 mediated PKB activation	strongly increased cQ induced PKB phosphorylation; also recorded: increased cQ induced PKB phosphorylation	completely abolished the activation of PKB by 10% FCS	induces phosphorylation of PKB	sufficient to induce phosphorylation of PKB on S473 residue	increasing concentrations of serum inhibit cQ induced PKB activation	inhibits insulin-stimulated actin remodelling	counteract insulin-stimulated actin remodelling; also recorded: interferes with insulin-stimulated stress fiber breakdown	induces the loss of stress fibers in starved fibroblasts	capable of reorganising the cytoskeleton independent of PI3-kinase	produces a disorganised cytoplasmic F-actin and an actin ring juxtaposed to the plasma membrane
